Earlier results in US20120142730A1 (priority 2010, published 2012).

Conditions: Noseworthy, 2000; cited from earlier work

CN(C(=O)c1c(O)c2ccccc2n(C)c1=O)c1ccccc1 [roquinimex]
Safety concerns previously seen: serositis, cardiovascular events and thrombosis
